# Test results as given in US11845749B1, “Substituted pyrido[4′,3′:5,6]pyrazino[1,2-a]indoles as anticancer agents” (KING FAISAL UNIVERSITY, priority 2023, dated 2023).
# Columns and labels:
# recombinant human CK2 = molecular target: T1, recombinant human CK2 (Homo sapiens, UniProt P68400); test: CK2 Kinase Assay (33P-ATP, filter plate); type: biochemical; conditions: final ATP concentration 15 μM, 10 min at 30° C.; read-out: protein kinase CK2 IC50
# T1 construct: purchased Millipore
# Protocol: CK2 Kinase Assay was conducted using the protocol as described in Pierre F. et al; J. Med. Chem. 2011, 54, 635-654. The tested compounds in aqueous solution were added at a volume of 10 μL to a reaction mixture comprising 10 μL of assay dilution buffer (ADB; 20 mM MOPS, pH 7.2, 25 mM β-glycerol phosphate, 5 mM EGTA, 1 mM sodium orthovanadate, and 1 mM dithiothreitol), 10 μL of substrate peptide (RRRDDDSDDD, dissolved in ADB at a concentration of 1 mM), 10 μL of recombinant human CK2 (RRfββ-holoenzyme, 25 ng dissolved in ADB; Millipore). Reactions were initiated by the addition of 10 μL of ATP solution (90% 75 mMMgCl2, 75 μM ATP (final ATP concentration:15 μM) dissolved in ADB; 10% [γ-33P] ATP (stock 1mCi/100 μL; 3000 Ci/mmol (Perkin-Elmer) and maintained for 10 min at 30° C. The reactions were quenched with 100 μL of 0.75% phosphoric acid and then transferred to and filtered through a phosphor cellulose filter plate (Millipore). After washing each well five times with 0.75% phosphoric acid, the plate was dried under vacuum for 5 min and, following the addition of 15 μL of scintillation fluid to each well, the residual radioactivity was measured using a Wallac […]. The IC50 values were derived from eight concentrations of test inhibitors.
# HCT116 (colon) = test: In vitro cytotoxic activity (MTT) assay, HCT116; type: cell-based; conditions: Homo sapiens, HCT-116, cells exposed for 96 hours, read-out: IC50, 50% inhibition of cell proliferation
# Protocol: (§1) Compounds 1-12 were screened for their in vitro cytotoxic activity utilizing a 3-(4,5-dimethyl-thiazol-2-yl)-2,5-diphenyltetrazolium bromide (MTT) assay against selected cancer human cell lines consisting of PC3 (prostate), HCT116 (colon), A375 (melanoma), H1299 (lung), MIAPaCa-2 (pancreas), HL60 (leukemia), MCF7 (breast), MDA-MB-231 (breast) (T. Mosmann, J. Immunol. Meth., 1983, 65, 55-63). The cells were cultured at 37° C. in RMPI1640 medium supplemented with 10% fetal bovine serum, 50 IU/mL penicillin, and 50 μg/mL streptomycin in a 5% CO2 incubator. All cells were sub-cultured 3 times/week by trypsinisation. Viable cells were seeded and allowed to adhere for 12 h before a test drug was added in 96-well plates at an initial density of 1.0×10^5 cells/mL. Tumour cell lines were separately exposed to various concentrations of the tested compounds followed by incubation at a temperature of 37° C. during 96 h inside a medium of fresh RMPI 1640. Cells were subsequently incubated at 37° C. using MTT at 0.5 mg/mL during 4 h. After removal of supernatant, formazan crystals were dissolved in isopropanol and the optical density was measured at 570 nm. CX-4945 was used as a positive control.
# MDA-MB-231 (breast) = test: In vitro cytotoxic activity (MTT) assay, MDA-MB-231; type: cell-based; conditions: Homo sapiens, cells exposed for 96 hours, read-out: IC50, 50% inhibition of cell proliferation
# Protocol: as §1
# MIAPaCa-2 (pancreas) = test: In vitro cytotoxic activity (MTT) assay, MIAPaCa-2; type: cell-based; conditions: Homo sapiens, MIA PaCa-2, cells exposed for 96 hours, read-out: IC50, 50% inhibition of cell proliferation
# Protocol: as §1
# H1299 (lung) = test: In vitro cytotoxic activity (MTT) assay, H1299; type: cell-based; conditions: Homo sapiens, NCI-H1299, cells exposed for 96 hours, read-out: IC50, 50% inhibition of cell proliferation
# Protocol: as §1
# A375 (melanoma) = test: In vitro cytotoxic activity (MTT) assay, A375; type: cell-based; conditions: Homo sapiens, A-375, cells exposed for 96 hours, read-out: IC50, 50% inhibition of cell proliferation
# Protocol: as §1
# HL60 (leukemia) = test: In vitro cytotoxic activity (MTT) assay, HL60; type: cell-based; conditions: Homo sapiens, HL-60, cells exposed for 96 hours, read-out: IC50, 50% inhibition of cell proliferation
# Protocol: as §1
# PC3 (prostate) = test: In vitro cytotoxic activity (MTT) assay, PC3; type: cell-based; conditions: Homo sapiens, Prostate cell, cells exposed for 96 hours, read-out: IC50, 50% inhibition of cell proliferation
# Protocol: as §1
# MCF7 (breast) = test: In vitro cytotoxic activity (MTT) assay, MCF7; type: cell-based; conditions: Homo sapiens, cells exposed for 96 hours, read-out: IC50, 50% inhibition of cell proliferation
# Protocol: as §1
# T1 sequence (P68400 whole entry): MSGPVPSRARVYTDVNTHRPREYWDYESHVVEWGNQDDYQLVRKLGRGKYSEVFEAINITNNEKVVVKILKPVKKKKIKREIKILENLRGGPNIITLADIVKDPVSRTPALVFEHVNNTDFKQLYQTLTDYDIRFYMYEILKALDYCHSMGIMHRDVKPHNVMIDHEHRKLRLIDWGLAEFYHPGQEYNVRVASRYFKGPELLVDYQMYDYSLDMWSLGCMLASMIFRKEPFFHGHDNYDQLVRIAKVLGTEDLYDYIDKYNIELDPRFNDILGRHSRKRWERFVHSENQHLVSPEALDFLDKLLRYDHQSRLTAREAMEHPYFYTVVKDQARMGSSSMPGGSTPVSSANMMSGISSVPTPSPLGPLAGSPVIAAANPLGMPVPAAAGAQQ
# T1 sequence (P67870 whole entry partner): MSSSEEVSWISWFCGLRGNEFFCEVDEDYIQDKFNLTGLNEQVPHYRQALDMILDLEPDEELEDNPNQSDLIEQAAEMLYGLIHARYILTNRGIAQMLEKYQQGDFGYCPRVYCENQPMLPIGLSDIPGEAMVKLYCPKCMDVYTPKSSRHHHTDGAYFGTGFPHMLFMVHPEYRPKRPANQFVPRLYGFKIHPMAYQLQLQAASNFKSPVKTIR
smiles,measurement,setting,value
"O=C(O)c1ccc2c(c1)cc1c(Nc3ccc(Cl)cc3)nc3ccncc3n12 [Compound 1, 6-((4-chlorophenyl)amino)pyrido[4′,3′:5,6]pyrazino[1,2-a]indole-9-carboxylic acid]",IC50,recombinant human CK2,12 nM
same,IC50,HCT116 (colon),1900 nM
same,IC50,MDA-MB-231 (breast),6100 nM
same,IC50,MIAPaCa-2 (pancreas),900 nM
same,IC50,H1299 (lung),3100 nM
same,IC50,A375 (melanoma),2500 nM
same,IC50,HL60 (leukemia),2800 nM
same,IC50,PC3 (prostate),1600 nM
same,IC50,MCF7 (breast),7800 nM
